Assay results from PubChem BioAssay (NCI).
Values joined by “and” are separate entries in the source; they are usually repeats but may differ in a detail not shown here. Identical values can stand only once.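 Interpolation was linear, between the two tested concentrations surrounding the appropriate level; five concentrations were tested over 48 hours in 96-well plates. The concentration for 50% growth inhibition is given as GI50. At the TGI there is no net growth.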

Columns and labels:
Test in all cases: NCI anticancer screen, dose series, 48 h
[1] = tested on: HCC-2998 colon
[2] = tested on: SR leukemia
[3] = tested on: U251 CNS
[4] = tested on: PC-3 prostate
[5] = tested on: RXF 393 renal
[6] = tested on: LOX IMVI melanoma
[7] = tested on: SF-295 CNS
[8] = tested on: SK-MEL-28 melanoma
[9] = tested on: K-562 leukemia
[10] = tested on: MDA-MB-435

OCc1c(-c2cccs2)oc(-c2cccs2)c1CO
GI50 [1]: 21.1 µM
TGI [1]: 45.6 µM
GI50 [2]: 32.5 µM
TGI [2]: 60.5 µM
GI50 [3]: 71.9 µM
TGI [3]: > 100 µM
GI50 [4]: 37.7 µM
TGI [4]: > 100 µM
GI50 [5]: 22.7 µM
TGI [5]: 78.5 µM
GI50 [6]: 26.6 µM
TGI [6]: 52.7 µM
GI50 [7]: 27.7 µM
TGI [7]: > 100 µM
GI50 [8]: > 100 µM
TGI [8]: > 100 µM
GI50 [9]: 41 µM
TGI [9]: > 100 µM
GI50 [10]: 46.9 µM
TGI [10]: > 100 µM

CC(NCCN(C)C)C1CCC2C3CCc4cc(O)ccc4C3CCC12C (configuration not stated)
TGI [2]: 3.85 µM
TGI [3]: 4.35 µM
TGI [4]: 11.7 µM
TGI [5]: 3.69 µM
TGI [6]: 4.75 µM
TGI [7]: 6.72 µM
TGI [8]: 5.29 µM
TGI [9]: 4.81 µM
TGI [10]: 4.7 µM

CN(C)CCNC(=O)c1ccc2c(c1)oc1cc3ccccc3c(=O)n12
GI50 [2]: 13.4 µM
TGI [2]: > 100 µM
GI50 [3]: 15.8 µM
TGI [3]: 30.6 µM
GI50 [4]: 28.7 µM
TGI [4]: > 100 µM
GI50 [5]: 19.6 µM
TGI [5]: 36.6 µM
GI50 [6]: 1.91 µM
TGI [6]: 11 µM
GI50 [7]: 14.2 µM
TGI [7]: 32.5 µM
GI50 [9]: 35.4 µM
TGI [9]: > 100 µM
GI50 [10]: 15.1 µM
TGI [10]: 32.7 µM

COc1ccc(CCN2CCCn3c2nc2ccccc2c3=O)cc1
GI50 [1]: 0.362 µM
TGI [1]: > 100 µM
GI50 [2]: 0.0448 µM
TGI [2]: > 100 µM
GI50 [3]: 0.0552 µM
GI50 [4]: 0.127 µM
TGI [4]: > 100 µM
GI50 [5]: 0.2 µM
TGI [5]: 35.8 µM
GI50 [6]: 0.0762 µM
TGI [6]: > 100 µM
GI50 [7]: 0.0597 µM
TGI [7]: > 54.2 µM
GI50 [8]: 2.42 µM
TGI [8]: > 100 µM
GI50 [9]: < 0.0205 µM
TGI [9]: > 100 µM
GI50 [10]: 0.022 µM
TGI [10]: 0.061 µM

O=C(Nc1cc(Cl)c(I)c(Cl)c1)C(F)(F)F
TGI [1]: 34.2 µM
TGI [2]: 99.5 µM
TGI [3]: > 100 µM
TGI [4]: 83.8 µM
TGI [5]: 34.5 µM
TGI [7]: > 100 µM
TGI [8]: 74 µM
TGI [9]: 81.8 µM
TGI [10]: > 100 µM

NCC(=O)Nc1ccc(Cl)cc1C(=O)c1ccc[nH]1
TGI [1]: > 100 µM
TGI [2]: > 100 µM
TGI [3]: > 100 µM
TGI [4]: > 100 µM
TGI [5]: > 100 µM
TGI [6]: > 100 µM
TGI [7]: > 100 µM
TGI [8]: > 100 µM
TGI [9]: > 100 µM
TGI [10]: > 100 µM

COc1ccc(-c2nc(NC(=O)CS(=O)(=O)c3ccc(F)cc3)sc2C)cc1
GI50 [1]: 26 µM
TGI [1]: 94.7 µM
GI50 [2]: 4.32 µM
TGI [2]: 46.1 µM
GI50 [3]: 19.2 µM
TGI [3]: 51.3 µM
GI50 [4]: 21.1 µM
TGI [4]: 94.7 µM
GI50 [5]: 15.6 µM
TGI [5]: 49.7 µM
GI50 [6]: 19.2 µM
TGI [6]: 42.6 µM
GI50 [7]: 18.8 µM
TGI [7]: 50.1 µM
GI50 [8]: 20.1 µM
TGI [8]: 62 µM
GI50 [9]: 3.94 µM
TGI [9]: > 100 µM
GI50 [10]: 3.29 µM
TGI [10]: 12.1 µM

Cc1cccc(CNc2c3ccccc3nc3ccccc23)c1
GI50 [1]: 1.55 µM
TGI [1]: 3.4 µM
GI50 [2]: 1.94 µM
TGI [2]: 8.62 µM
GI50 [3]: 1.96 µM
TGI [3]: 5.54 µM
GI50 [4]: 1.99 µM
TGI [4]: 7.11 µM
GI50 [5]: 1.54 µM
TGI [5]: 3.07 µM
GI50 [6]: 1.49 µM
TGI [6]: 2.9 µM
GI50 [7]: 2.13 µM
TGI [7]: 6.67 µM
GI50 [8]: 1.89 µM
TGI [8]: 4.07 µM
GI50 [9]: 2.23 µM
TGI [9]: 12.5 µM
GI50 [10]: 1.66 µM
TGI [10]: 3.22 µM

CCC/C=C/C=C/C(=O)OC1/C(=C/C(=O)OC)CC2CC(C(C)O)OC(=O)CC(O)CC3CC(OC(C)=O)C(C)(C)C(O)(CC4C/C(=C/C(=O)OC)CC(/C=C/C(C)(C)C1(O)O2)O4)O3 (configuration not stated)
GI50 [1]: > 10.9 µM and 4.72 µM and > 12.5 µM
TGI [1]: > 10.9 µM and 9 µM and > 12.5 µM
GI50 [2]: 10.8 µM
TGI [2]: 11 µM and > 12.5 µM
GI50 [3]: > 10.9 µM and 7.21 µM and > 12.5 µM
TGI [3]: > 10.9 µM and 9.3 µM and > 12.5 µM
GI50 [4]: > 12.5 µM
TGI [4]: 11 µM and > 12.5 µM
GI50 [5]: 10.6 µM and 5.25 µM and > 12.5 µM
TGI [5]: 10.9 µM and > 12.5 µM
GI50 [6]: > 10.9 µM and 8.02 µM and > 12.5 µM
TGI [6]: > 10.9 µM and 11 µM and > 12.5 µM
GI50 [7]: > 10.9 µM and 6.77 µM and > 12.5 µM
TGI [7]: > 10.9 µM and 11 µM and > 12.5 µM
GI50 [8]: 8.54 µM and > 12.5 µM
TGI [8]: > 10.9 µM and 11 µM and > 12.5 µM
GI50 [9]: 8.57 µM and 3.77 µM and > 12.5 µM
TGI [9]: 10.9 µM and 11 µM and > 12.5 µM
GI50 [10]: > 12.5 µM
TGI [10]: 11 µM and > 12.5 µM

NC(CSC(c1ccccc1)(c1ccccc1)c1ccccc1)C(=O)O (configuration not stated)
GI50 [1]: 2.52 µM and 2.64 µM
TGI [1]: 7.4 µM and 10.8 µM and 23.9 µM
TGI [2]: 19.3 µM and 43.8 µM
GI50 [3]: 1.11 µM and 0.485 µM
TGI [3]: 16.9 µM and 32.4 µM and 43.4 µM
GI50 [4]: 2.43 µM
TGI [4]: 12.1 µM and > 100 µM
GI50 [5]: 0.708 µM and 0.454 µM
TGI [5]: 22.8 µM and > 100 µM
GI50 [6]: 6.26 µM and 4.14 µM
TGI [6]: 24.3 µM and > 100 µM
GI50 [7]: 0.485 µM and 0.522 µM and 2.65 µM
GI50 [8]: 12.2 µM and 4.46 µM
TGI [8]: 110 µM and > 100 µM
GI50 [9]: 1.76 µM and 0.775 µM
TGI [9]: 31.9 µM and > 100 µM
GI50 [10]: 0.275 µM
TGI [10]: 0.648 µM and 0.791 µM

Nc1nc(N)nc(CCCCc2nc(N)nc(N)n2)n1
TGI [2]: > 100 µM
TGI [3]: > 100 µM
TGI [4]: > 100 µM
TGI [5]: > 100 µM
TGI [6]: > 100 µM
TGI [7]: > 100 µM
TGI [8]: > 100 µM
TGI [9]: > 100 µM
TGI [10]: > 100 µM

CN(c1cccc(C(=O)O)c1)c1cc(O/N=[N+](\[O-])N(C)C)c([N+](=O)[O-])cc1[N+](=O)[O-]
GI50 [2]: 56.4 µM
TGI [2]: > 100 µM
GI50 [3]: > 100 µM
TGI [3]: > 100 µM
GI50 [4]: > 100 µM
TGI [4]: > 100 µM
GI50 [5]: > 100 µM
TGI [5]: > 100 µM
GI50 [6]: 47.6 µM
TGI [6]: > 100 µM
GI50 [7]: > 100 µM
TGI [7]: > 100 µM
GI50 [8]: 85.1 µM
TGI [8]: > 100 µM
GI50 [9]: 78.8 µM
TGI [9]: > 100 µM
GI50 [10]: > 100 µM
TGI [10]: > 100 µM

O=C(O)/C=C/c1c2ccc(=O)c(O)c-2oc2c(O)c(O)ccc12
TGI [1]: > 100 µM
TGI [2]: > 100 µM
TGI [3]: 35.3 µM
TGI [4]: > 100 µM
TGI [5]: > 100 µM
TGI [6]: 62.2 µM
TGI [7]: 55 µM
TGI [8]: > 100 µM
TGI [9]: 50.2 µM
TGI [10]: 33.5 µM

CN(C)Cc1ccc(NC(=O)c2cncc(C#Cc3cnc(N)c4ncccc34)c2)cc1C(F)(F)F
GI50 [1]: 1.62 µM
TGI [1]: 3.16 µM
GI50 [2]: 1.43 µM
TGI [2]: 3.44 µM
GI50 [3]: 1.63 µM
TGI [3]: 3.13 µM
GI50 [4]: 1.64 µM
TGI [4]: 3.04 µM
GI50 [5]: 1.31 µM
TGI [5]: 2.88 µM
GI50 [6]: 0.994 µM
TGI [6]: 2.24 µM
GI50 [7]: 1.59 µM
TGI [7]: 2.98 µM
GI50 [8]: 0.161 µM
TGI [8]: 1.43 µM
TGI [9]: 1.02 µM
GI50 [10]: 0.376 µM
TGI [10]: 1.88 µM

O=[N+]([O-])c1ccccc1/C=N\NC(=S)N/N=C/c1ccccc1[N+](=O)[O-]
GI50 [1]: 20 µM
TGI [1]: > 100 µM
GI50 [2]: 2.87 µM
TGI [2]: > 100 µM
GI50 [3]: 4.9 µM
TGI [3]: > 100 µM
GI50 [4]: 10 µM
TGI [4]: > 100 µM
GI50 [5]: 11.6 µM
TGI [5]: > 100 µM
GI50 [6]: 6.48 µM
TGI [6]: > 100 µM
GI50 [7]: 1.87 µM
TGI [7]: 7.41 µM
GI50 [8]: 8.44 µM
TGI [8]: > 100 µM
GI50 [9]: 3.43 µM
TGI [9]: > 100 µM
GI50 [10]: 0.426 µM
TGI [10]: 3.62 µM
